Here are results for one molecule from patent US20080032953A1, “Method For Inhibiting Prebiotic Effect Of Food Proteins” (Royal Canin SA,, priority 2004, published 2008).

One experiment deals with anaerobic microflora. Briefly: Growth of cat oral bacterial microflora in artificial saliva with protein, with or without phosphate: anaerobic count. Format: cell-based. As to conditions: MP9007 1%. The procedure: (§1) For all the experiments, the bacterial microflora of the oral cavity was removed, kept in a conservation medium, and then cultured in artificial saliva according to the following protocol:
(§2) Two male cats of “European” race, weighing approximately 5.50 kg, were anesthetized with 0.3 ml of a solution of medetomidine at 0.085 g/100 ml (Domitor, ND) and 0.26 ml of a solution of ketamine at […] (Imalgene 1000, ND).
(§3) In each animal thus immobilized, the saliva was sterilely suctioned with a pipette and the base of the teeth, the gums and the gum pockets were scraped with the back of a sterile scalpel.
(§4) All the samples were transferred and well-diluted in 100 ml of a sterile conservation medium (thiocolate resazurin medium from Biokar supplemented with 25% of glycerol). The conservation medium containing the samples was transferred into tubes with microbeads (Cryobilles, ND from AES). These tubes were then incubated for 6 hours in an incubator at 37° C., in a jar under CO2, before being frozen for subsequent use.
(§5) When subsequently used, each tube is thawed at ambient temperature and then incubated for 12 hours at 37° C., in a jar under CO2. The aerobic and anaerobic bacteria are counted according to the methods described hereinafter. The content of each tube is subsequently diluted with the sterile conservation medium so as to have an inoculum of 5000 (3.70 log10) revivable microorganisms in 0.2 ml.
The anaerobic microflora is cultured and then counted on a Schaedler medium (Biokar) supplemented with 5% of sterile defibrinated sheep blood, incubated at 37° C., in a jar under CO2, for 48 hours.
(§6) The basic artificial saliva is prepared according to table 31 on page 244 of the manual Biological Handbooks—Metabolism, compiled and edited by Philip L. Altman and Dorothy S. Dittmer, published by Federation of American Societies for Experimental Biology, 1968.
(§7) This basic saliva is supplemented with L-cysteine at a rate of 0.5 g/liter in order to lower its redox potential so as to be able to grow therein both the aerobic bacterial microflora and the anaerobic bacterial microflora. The whole will subsequently be referred to as “artificial saliva”.
(§8) The artificial saliva is dispensed into test tubes at a rate of 20 ml per tube. Each tube is supplemented or not supplemented with the protein, in the presence or absence of the phosphate to be tested. Each treatment is composed of two tubes.
(§9) The whole is autoclaved at 110° C. for 15 minutes.
(§10) Each tube is subsequently inoculated with 0.2 ml of inoculum described above. The whole is incubated in an incubator at 37° C., with shaking.
(§11) After 24, 48 or 72 hours of incubation, the aerobic flora and the anaerobic flora are counted according to the methods described above.
(§12) The result of each treatment is the mean of the counts of two test tubes, expressed as log10 of C.F.U. (Colony Forming Units) per ml of artificial saliva.

In the next experiment the test system is aerobic microflora. The experiment is described as follows: Growth of cat oral bacterial microflora in artificial saliva with protein, with or without phosphate: aerobic count. It is filed as cell-based. As to conditions: MP9007 1%. On the procedure:
as §1, §2, §3, §4, §5
The aerobic microflora is cultured and then counted on a trypticase soy medium (Biokar) incubated at 37° C. for 48 hours.
as §6, §7, §8, §9, §10, §11, §12

[1] abbreviates: Experiment 2, trisodium pyrophosphate 5%.
[2] abbreviates: Experiment 2, trisodium pyrophosphate 10%.
Where [3] appears, read: Experiment 2, trisodium phosphate at 5%, from 24 hours of incubation.
Where [4] appears, read: Experiment 2, trisodium phosphate incorporated at 10%.
Setting [5] is: Experiment 3, trisodium pyrophosphate 0.5%.

For `O=P([O-])([O-])OP(=O)([O-])O.[Na+].[Na+].[Na+]` [Trisodium pyrophosphate, trisodium pyrophosphate], in the experiment on anaerobic microflora (setting [1]), the “Anaerobic microflora CFU/ml, 24 hours” value is 6.88 log10 CFU/ml; the “Anaerobic microflora CFU/ml, 48 hours” value amounted to 7.46 log10 CFU/ml; the “Anaerobic microflora CFU/ml, 72 hours” value is on record as 6.26 log10 CFU/ml. Further, in the experiment on anaerobic microflora (setting [2]), the “Anaerobic microflora CFU/ml, 24 hours” value is on record as less than 4.00 log10 CFU/ml; the “Anaerobic microflora CFU/ml, 48 hours” value is reported as less than 4.00 log10 CFU/ml; the “Anaerobic microflora CFU/ml, 72 hours” value is on record as less than 4.00 log10 CFU/ml. Besides, the “Inhibitory effect on the prebiotic effect of MP9007, anaerobic microflora (in words)” value in the experiment on anaerobic microflora (setting [3]) is “very substantial”. Besides, the “Inhibition of the prebiotic effect of the MP9007 protein, anaerobic microflora (in words)” value in the experiment with anaerobic microflora (setting [4]) is given as “completely inhibited”. Besides, in the experiment on anaerobic microflora (setting [5]), the “Anaerobic microflora CFU/ml, 24 hours” value came to 7.75 log10 CFU/ml. In the experiment on aerobic microflora (setting [1]), the “Aerobic microflora CFU/ml, 24 hours” value was 6.88 log10 CFU/ml; the “Aerobic microflora CFU/ml, 48 hours” value stood at 7.56 log10 CFU/ml; the “Aerobic microflora CFU/ml, 72 hours” value was 7.69 log10 CFU/ml. In addition, in the experiment on aerobic microflora (setting [2]), the “Aerobic microflora CFU/ml, 24 hours” value was less than 4.00 log10 CFU/ml; the “Aerobic microflora CFU/ml, 48 hours” value was 4.88 log10 CFU/ml; the “Aerobic microflora CFU/ml, 72 hours” value is recorded as less than 4.00 log10 CFU/ml. In the experiment with aerobic microflora (setting [3]), the “Inhibitory effect on the prebiotic effect of MP9007, aerobic microflora (in words)” value is given as “very substantial”. Also, the “Inhibition of the prebiotic effect of the MP9007 protein, aerobic microflora (in words)” value in the experiment with aerobic microflora (setting [4]) is listed as “completely inhibited”. In the experiment with aerobic microflora (setting [5]), the “Aerobic microflora CFU/ml, 24 hours” value is 7.75 log10 CFU/ml.
